Experimental data published in the NIST ThermoML archive (doi:10.1016/j.jct.2009.07.005).

Legend:
[1] = molar heat capacity at constant pressure; conditions: 101.33 kPa, Liquid, Small sample (50 mg) DSC
[2] = xn = mol fraction of the nth substance listed; conditions: 101 kPa, Liquid, Small sample (50 mg) DSC
[3] = molar heat capacity at constant pressure; xn = mol fraction of the nth substance listed; conditions: 101 kPa, Liquid, Small sample (50 mg) DSC

C1CNCCN1 [piperazine]
[1]
Conditions	molar heat capacity at constant pressure [J/K/mol]
393.2 K	216.3
398.2 K	218.7
403.2 K	220.5
408.2 K	222.8
413.2 K	225

C1CNCCN1 [piperazine] + CN(CCO)CCO
Conditions	excess molar heat capacity, x1 = 0.1 [J/K/mol]	excess molar heat capacity, x1 = 0.2 [J/K/mol]	excess molar heat capacity, x1 = 0.3 [J/K/mol]	excess molar heat capacity, x1 = 0.4 [J/K/mol]	molar heat capacity at constant pressure, x1 = 0.1 [J/K/mol]	molar heat capacity at constant pressure, x1 = 0.2 [J/K/mol]	molar heat capacity at constant pressure, x1 = 0.3 [J/K/mol]	molar heat capacity at constant pressure, x1 = 0.4 [J/K/mol]
[2], 303.2 K	2.3	3.92	5.4	6.21	–	–	–	–
[2], 308.2 K	2.46	4.22	5.73	6.61	–	–	–	–
[2], 313.2 K	2.63	4.52	6.06	7.01	–	–	–	–
[2], 318.2 K	2.79	4.82	6.4	7.41	–	–	–	–
[2], 323.2 K	2.97	5.11	6.74	7.82	–	–	–	–
[2], 328.2 K	3.12	5.51	7.06	8.22	–	–	–	–
[2], 333.2 K	3.29	5.82	7.41	8.62	–	–	–	–
[2], 338.2 K	3.46	6.1	7.73	9.02	–	–	–	–
[2], 343.2 K	3.63	6.4	8.06	9.42	–	–	–	–
[2], 348.2 K	3.79	6.7	8.39	9.83	–	–	–	–
[2], 353.2 K	3.95	6.99	8.72	10.23	–	–	–	–
[3], 303.2 K	–	–	–	–	264.4	256.6	248.7	240.1
[3], 308.2 K	–	–	–	–	267.7	260	252	243.3
[3], 313.2 K	–	–	–	–	271.1	263.3	255.2	246.6
[3], 318.2 K	–	–	–	–	274.4	266.7	258.5	249.8
[3], 323.2 K	–	–	–	–	277.7	270	261.8	253
[3], 328.2 K	–	–	–	–	281	273.5	265.1	256.3
[3], 333.2 K	–	–	–	–	284.4	276.8	268.4	259.5
[3], 338.2 K	–	–	–	–	287.7	280.2	271.6	262.7
[3], 343.2 K	–	–	–	–	291.1	283.5	274.9	266
[3], 348.2 K	–	–	–	–	294.4	286.9	278.2	269.2
[3], 353.2 K	–	–	–	–	297.7	290.2	281.4	272.4

C1CNCCN1 [piperazine] + O
Conditions	excess molar heat capacity, x1 = 0.05 [J/K/mol]	excess molar heat capacity, x1 = 0.1 [J/K/mol]	excess molar heat capacity, x1 = 0.15 [J/K/mol]	excess molar heat capacity, x1 = 0.2 [J/K/mol]	molar heat capacity at constant pressure, x1 = 0.05 [J/K/mol]	molar heat capacity at constant pressure, x1 = 0.1 [J/K/mol]	molar heat capacity at constant pressure, x1 = 0.15 [J/K/mol]	molar heat capacity at constant pressure, x1 = 0.2 [J/K/mol]
[2], 303.2 K	2.16	3.88	5.53	7.95	–	–	–	–
[2], 308.2 K	2.37	4.28	6.13	8.65	–	–	–	–
[2], 313.2 K	2.58	4.68	6.73	9.35	–	–	–	–
[2], 318.2 K	2.78	5.08	7.33	10.05	–	–	–	–
[2], 323.2 K	2.99	5.58	7.93	10.75	–	–	–	–
[2], 328.2 K	3.2	5.98	8.53	11.45	–	–	–	–
[2], 333.2 K	3.41	6.38	9.03	12.25	–	–	–	–
[2], 338.2 K	3.62	6.78	9.53	12.95	–	–	–	–
[2], 343.2 K	3.83	7.18	10.13	13.65	–	–	–	–
[2], 348.2 K	4.04	7.58	10.63	14.35	–	–	–	–
[2], 353.2 K	4.25	7.98	11.23	15.05	–	–	–	–
[3], 303.2 K	–	–	–	–	82.5	89.4	96.1	103.7
[3], 308.2 K	–	–	–	–	82.8	90	97	104.8
[3], 313.2 K	–	–	–	–	83.2	90.6	98	105.9
[3], 318.2 K	–	–	–	–	83.5	91.2	98.9	107.1
[3], 323.2 K	–	–	–	–	83.8	92	99.9	108.2
[3], 328.2 K	–	–	–	–	84.2	92.6	100.8	109.4
[3], 333.2 K	–	–	–	–	84.5	93.3	101.7	110.6
[3], 338.2 K	–	–	–	–	84.9	93.9	102.5	111.8
[3], 343.2 K	–	–	–	–	85.3	94.6	103.5	113
[3], 348.2 K	–	–	–	–	85.6	95.2	104.4	114.1
[3], 353.2 K	–	–	–	–	86	95.9	105.3	115.3
